Measurements from the OPERA property sets (Mansouri et al. 2018).

SMILES	melting point [°C]	log10 Koa	boiling point [°C]	log10 vapour pressure (mmHg)	log10 Henry constant (atm·m³/mol)	ready biodegradability	log10 biodegradation half-life (days)	log10 Koc (L/kg)
NS(=O)(=O)c1cc(-c2nnn[nH]2)c(NCc2cccs2)cc1Cl	220	–	–	–	–	–	–	–
Clc1ccc2c(Cl)ccc(Cl)c2c1Cl	–	8.4	–	–	–	–	–	–
C[C@]1(O)CC[C@H]2[C@@H]3CCC4=CC(=O)CC[C@]4(C)[C@@]3(F)[C@@H](O)C[C@@]21C	270	–	–	–	–	–	–	–
CCc1ccccc1-c1ccccc1	-6	–	266	–	–	–	–	–
CCNC(=O)C(=O)NCC	175	–	–	–	–	–	–	–
CCCCC(=O)CCCC	-3.8	–	188	-0.258	–	–	–	–
C=CC#N	-83.5	–	77.3	2.04	-3.86	readily biodegradable	–	–
CCOC(=O)/C=C/C(=O)OCC	–	–	–	–	–	readily biodegradable	–	–
FC(F)(Br)C(F)(F)C(F)(F)C(F)(F)C(F)(F)C(F)(F)Br	–	–	142	–	–	–	–	–
C1=CCCC1	-135	–	44.2	2.58	–	readily biodegradable	–	–
O=C(O)c1cnc(O)nc1O	283	–	–	–	–	–	–	–
C[Si](C)(C)N=C=N[Si](C)(C)C	-23	–	164	–	–	–	–	–
O=C(O)CCCCCCCCC(=O)O	131	–	–	-7.26	–	readily biodegradable	–	–
CC1(C)COC(C)(C)C1	–	–	121	–	–	–	–	–
CC1CCCC(C)C1O (configuration not stated)	32.5	–	176	–	–	–	–	–
COc1cc2c(c(O)c1OC)CNCC2	188	–	–	–	–	–	–	–
COc1ccc2c(C(=O)c3ccc(Cl)cc3)c(C)n(CC(=O)O)c2c1	242	–	–	–	–	–	–	–
O=S(c1ccccc1)c1ccccc1	71.2	–	–	–	–	–	–	–
CC(C)CC=NO	48.5	–	161	–	–	–	–	–
Cc1cc(N)c(S(=O)(=O)O)cc1Cl	–	–	–	–	–	not readily biodegradable	–	–
O=S(=O)([O-])CCN1CC[NH+](CCO)CC1	234	–	–	–	–	–	–	–

SMILES	melting point [°C]	log10 Koa	boiling point [°C]	log10 vapour pressure (mmHg)	log10 Henry constant (atm·m³/mol)	ready biodegradability	log10 biodegradation half-life (days)	log10 Koc (L/kg)
OC[C@@H](O)[C@@H](O)CO	122	–	330	–	–	–	–	–
O=c1c2ccccc2c(=O)c2c1ccc1[nH]c3c(ccc4c(=O)c5ccccc5c(=O)c43)[nH]c12	–	–	–	–	–	not readily biodegradable	–	–
CCCCCCCCCCC(=O)OCC	-15	–	–	-2.37	–	–	–	–
O=C1CCCC(=O)O1	56.3	–	287	-2.52	–	–	–	–
Cc1ccc(C)c(Br)c1	9	–	199	–	–	–	–	–
O=C(N/N=C/c1ccccc1O)c1ccncc1	232	–	–	–	–	–	–	–
O=S(=O)(O)CCCNC1CCCCC1	302	–	–	–	–	–	–	–
CCCCCCCS	-43	–	177	0.116	–	–	–	–
CN(C)c1ccc2ccccc2c1	52.5	–	305	–	–	–	–	–
CCCCC1C(=O)NN(c2ccccc2)C1=O (configuration not stated)	102	–	–	–	–	–	–	–
COc1cc(C(=O)OCCCN(C)CCN(C)CCCOC(=O)c2cc(OC)c(OC)c(OC)c2)cc(OC)c1OC	76	–	–	–	–	–	–	–
Cc1ccc(O)c(N=Nc2ccccc2)c1	108	–	–	–	–	–	–	–
CCOC(=O)c1ccc(Br)cc1	–	–	263	–	–	–	–	–
N#CCN(CC#N)CCN(CC#N)CC#N	128	–	–	–	–	–	–	–
CCN1CCOCC1	-64	–	138	0.702	–	not readily biodegradable	–	–
CCCCCCCCCCCCCCCCCCCCCCCCCCCCCCCCC	72	–	–	-10.4	–	–	2.56	–
C=C(C)CCC(C)C	–	–	112	–	–	–	–	–
Oc1ccc(Cc2ccccc2)cc1	84	–	322	–	–	not readily biodegradable	–	–
Clc1ccc(Br)c(Cl)c1	26	–	235	–	–	–	–	–
C=C(C)C(=O)OCCOCCOC(=O)C(=C)C	–	–	–	–	–	readily biodegradable	–	–
C[N+](C)(C)OP(=O)([O-])OP(=O)(O)OC[C@H]1O[C@@H](n2ccc(N)nc2=O)[C@H](O)[C@@H]1O	–	–	–	–	–	readily biodegradable	–	–

SMILES	melting point [°C]	log10 Koa	boiling point [°C]	log10 vapour pressure (mmHg)	log10 Henry constant (atm·m³/mol)	ready biodegradability	log10 biodegradation half-life (days)	log10 Koc (L/kg)
CCCCCC(=O)CC	–	–	168	0.301	–	–	–	–
C/C=C(\C)c1ccccc1	-23.5	–	–	–	–	–	–	–
CN(C)CCCN	-60	–	133	1	–	–	–	–
C1CC2C3CCC(C3)C2C1 (configuration not stated)	–	–	–	–	–	–	3	–
COC(=O)C(C)C(C)=O (configuration not stated)	–	–	177	–	–	–	–	–
Oc1cccnc1	–	–	–	–	–	readily biodegradable	–	–
c1ccc(-c2ccccc2-c2ccccc2)cc1	56.2	–	332	-3.6	–	–	–	–
Clc1ccc2oc3c(Cl)c(Cl)c(Cl)c(Cl)c3c2c1Cl	–	10.9	–	–	–	–	–	–
COC(CBr)OC	–	–	149	–	–	–	–	–
Oc1ccccc1F	16.1	–	152	–	-5.49	not readily biodegradable	–	–
ClC=C(Cl)Cl	-84.7	2.99	87.2	1.84	-2.01	not readily biodegradable	–	2
C=C1CCC1	-135	–	42.2	–	–	–	–	–
CC(C)[N+](=O)[O-]	-91.3	–	120	1.24	–	–	–	–
CC(C)(C)c1cc(-c2ccccc2)cc(C(C)(C)C)c1O	–	–	–	–	–	not readily biodegradable	–	–
CCc1ccc(O)c(OC)c1	-7	–	236	–	–	–	–	–
COC(=O)Cn1ccnc1[N+](=O)[O-]	96	–	–	–	–	–	–	–
COC(=O)C1(O)c2ccccc2-c2ccc(Cl)cc21 (configuration not stated)	139	–	–	–	–	–	–	–
C#CC(C)(C)Cl	-61	–	76	–	–	–	–	–
CCCCCCCCCCCCCCCCCCCCCCCCCCCCCCCC	69.7	–	467	–	–	readily biodegradable	2.45	–
CC(C)NC(C)C	-61	–	83.9	1.9	–	–	–	–
